Key:
[1] = Saturation concentration Cs of fampridine in polymer matrices ("sandwich" method by Liu); format: physicochemical; details: for Cs of fampridine: 7 days at room temperature
Protocol: The saturation concentration Cs of […] determined in various polymer matrices by the method described by Liu. (Liu, P., Gargiulo, P., Wong, J., and Novartis (1997). A Novel Method for Measuring Solubility of a Drug in an Adhesive, Pharmaceutical Research 14, page 317). In this method, known by specialists as the “sandwich” method, the saturation concentration is determined as follows: A laminate is constructed, having the following layer sequence: protective film-donor layer with active ingredient (dissolved and undissolved)-active ingredient-permeable membrane-acceptor layer without active ingredient-protective film. The two protective films are made of identical material; the matrix material of the donor and of the acceptor layer is likewise identical. The donor layer is produced by dissolving the active ingredient in a solution of the polymer in organic solvent. The concentration of the active ingredient must be selected to be high enough that an undissolved residue can be identified in the polymer matrix so that the saturation concentration Cs in the donor layer is reliably exceeded. This solution is applied to the protective film, and the process solvent is evaporated. The adhesive surface of the donor layer is then covered with the membrane. A dialysis tube made of regenerated cellulose (ZelluTrans®, from Roth, 46 mm flat width) that has been cut to size in the longitudinal direction is used as membrane. The acceptor layer is produced without active ingredient, similarly to the donor layer, and the membrane is applied to the other side. The laminates thus produced are then stored for 7 days at room temperature, during which time the active ingredient diffuses through the membrane into the acceptor layer. The active ingredient concentration in the […] is then determined. To this end, aliquots of approximately 1 cm^2 are punched out using a punching tool of standardised area. The membrane is then removed, the punched blanks without membrane are weighed, and their weight is recorded (m1). The punched blanks are then placed in organic solvent so as to remove the matrices. The backing layers are removed, washed, and dried, and their weight (m2) is determined. […] The concentration of […] solution is then calculated using an HPLC method, and its concentration in the […] is calculated. The saturation concentrations of […] different polymer matrices determined on the basis of this test approach are summarised in Table 1: […]

[2] = Solubility of fampridine base in organic solvents; format: physicochemical
Protocol: Since toluene polysiloxane solution is not commercially obtainable, BIO PSA 4201 from Dow Chemicals (polysiloxane in n-heptane) was used as starting material. The solvent was evaporated and the rubber-like polymer residue was dissolved with so much toluene that a solution with approximately 75% solids was obtained.

SMILES: Nc1ccncc1 [fampridine, 4-aminopyridine]
- saturation concentration Cs relative to neutral polymers ([1]; in acidic polymers vs neutral polymers): approximately 3 times higher
- Cs of fampridine ([1]; in acrylate copolymer of 2-ethylhexylacrylate, butyl acrylate, vinyl acetate, acrylic acid, ethyl acetate): 7.4%
- Cs of fampridine ([1]; in acrylate copolymer of 2-ethylhexylacrylate, vinyl acetate and 2-hydroxyethyl acrylate, ethyl acetate): 3.3%
- saturation concentration Cs of fampridine ([1]; in neutral polymers (summary of Table 1)): approximately 3%
- Cs of fampridine ([1]; in polyisobutylene, polymer dissolved in toluene): 2.2%
- Cs of fampridine (in words) ([1]; in polysiloxane): especially low
- Cs of fampridine ([1]; in polysiloxane, ethyl acetate): 0.3%
- Cs of fampridine ([1]; in styrene-isoprene-styrene block copolymer, polymer dissolved in toluene): 2.7%
- Solubility ([2]; in aromatic hydrocarbons): sufficiently soluble
- Solubility ([2]; in n-heptane): not
